Experimental data as given in US8455475B2 (Gruenenthal GmbH, priority 2009, dated 2013).

Legend:
[1] = target: T1, human B1R (bradykinin receptor 1) (Homo sapiens, UniProt P46663); test: FLIPR Ca2+ assay (Fluo-4) on CHO K1 cells stably transfected with the human B1R gene (hB1R cells): % inhibition at 10 μM / IC50, agonist Lys-Des-Arg9-bradykinin; type: cell-based; settings: for inhibition at 10 µM: CHO-K1, human B1R
T1 construct: expressed in transfected cells; host or cells: CHO K1 cells
T1 sequence (P46663 1-353): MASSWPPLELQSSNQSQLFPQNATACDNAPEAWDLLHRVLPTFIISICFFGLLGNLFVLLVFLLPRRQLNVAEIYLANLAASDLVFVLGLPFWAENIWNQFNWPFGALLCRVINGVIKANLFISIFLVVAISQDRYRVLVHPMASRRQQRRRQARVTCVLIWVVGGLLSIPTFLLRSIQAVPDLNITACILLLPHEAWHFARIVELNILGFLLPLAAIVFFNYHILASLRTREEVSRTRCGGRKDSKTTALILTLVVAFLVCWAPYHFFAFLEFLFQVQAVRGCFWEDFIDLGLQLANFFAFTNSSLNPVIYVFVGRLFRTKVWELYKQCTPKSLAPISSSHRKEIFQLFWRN
In short: (§1)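 Loading with Fluo-4 occurs for 60 min at 37 °C, or alternatively in buffer A, before FLIPR measurement. Compounds are applied, incubated 10–20 min, and then the EC80 agonist is added. Antagonism appears as reduced peak Ca2+ signal relative to maximal inhibition.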

[2] = target: T2, rat B1R (bradykinin receptor 1) (Rattus norvegicus, UniProt P97583); test: FLIPR Ca2+ assay (Fluo-4) on CHO K1 cells stably transfected with the B1R gene of the rat (rB1R cells): % inhibition at 10 μM / IC50, agonist Des-Arg9-bradykinin; type: cell-based; settings: for inhibition at 10 µM: CHO-K1, rat B1R
T2 construct: expressed in transfected cells; host or cells: CHO K1 cells
T2 sequence (P97583 1-337): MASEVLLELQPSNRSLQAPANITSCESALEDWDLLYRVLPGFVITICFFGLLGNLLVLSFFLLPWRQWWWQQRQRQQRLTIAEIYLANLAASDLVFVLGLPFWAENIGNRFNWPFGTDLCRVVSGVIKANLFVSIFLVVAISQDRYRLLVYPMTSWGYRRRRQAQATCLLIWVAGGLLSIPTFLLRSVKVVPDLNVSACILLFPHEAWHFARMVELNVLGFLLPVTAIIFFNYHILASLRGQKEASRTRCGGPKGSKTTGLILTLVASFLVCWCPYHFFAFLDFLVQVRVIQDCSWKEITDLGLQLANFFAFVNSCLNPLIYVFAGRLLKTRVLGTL
In short: as §1

SMILES	inhibition at 10 µM [1] [%]	inhibition at 10 µM [2] [%]	% Inhibition (human B1R) at 10 μM ([1]; human B1R) [%]	% Inhibition (rat B1R) at 10 μM ([2]; rat B1R, 10 µM) [%]
CN(C(=O)c1ccc(F)cc1Cl)C1CCc2ccc(C(=O)N3CCC4(CC3)CCN(c3ccncc3)CC4)cc21 (stereo not shown) [IND_CC-261, 2-Chloro-4-fluoro-N-methyl-N-[6-(9-pyridin-4-yl-3,9-diazaspiro[5.5]undecane-3-carbonyl)-2,3-dihydro-1H-inden-1-yl]-benzamide]	100	103		
O=C(NC1CCc2ccc(C(=O)N3CCC4(CC3)CCN(c3ccncc3)CC4)cc21)c1ccc(F)cc1Cl (stereo not shown) [IND_CC-262, 2-Chloro-4-fluoro-N-[6-(9-pyridin-4-yl-3,9-diazaspiro[5.5]undecane-3-carbonyl)-2,3-dihydro-1H-inden-1-yl]-benzamide]	100	105		
O=C(NC1CCc2ccc(C(=O)N3CCC4(CC3)CCN(c3ccncc3)C4)cc21)c1ccc(F)cc1Cl (stereo not shown) [IND_CC-263, 2-Chloro-4-fluoro-N-[6-(2-pyridin-4-yl-2,8-diazaspiro[4.5]decane-8-carbonyl)-2,3-dihydro-1H-inden-1-yl]-benzamide]	100	81		
O=C(NC1CCc2ccc(C(=O)N3CCC4(CC3)CCN(c3ccncc3)C4)cc21)c1c(F)cccc1Cl (stereo not shown) [IND_CC-264, 2-Chloro-6-fluoro-N-[6-(2-pyridin-4-yl-2,8-diazaspiro[4.5]decane-8-carbonyl)-2,3-dihydro-1H-inden-1-yl]-benzamide]	97	106		
CN(C(=O)c1cccc(Cl)c1Cl)C1CCc2ccc(C(=O)N3CCC4(CC3)CCN(c3ccncc3)CC4)cc21 (stereo not shown) [IND_CC-265, 2,3-Dichloro-N-methyl-N-[6-(9-pyridin-4-yl-3,9-diazaspiro[5.5]undecane-3-carbonyl)-2,3-dihydro-1H-inden-1-yl]-benzamide]	88	107		
O=C(NC1CCc2ccc(C(=O)N3CCC4(CC3)CCN(c3ccncc3)CC4)cc21)c1cccc(Cl)c1Cl (stereo not shown) [IND_CC-266, 2,3-Dichloro-N-[6-(9-pyridin-4-yl-3,9-diazaspiro[5.5]undecane-3-carbonyl)-2,3-dihydro-1H-inden-1-yl]-benzamide]	98	106		
O=C(NC1CCc2ccc(C(=O)N3CCC4(CC3)CCN(c3ccncc3)C4)cc21)c1cccc(Cl)c1Cl (stereo not shown) [IND_CC-267, 2,3-Dichloro-N-[6-(2-pyridin-4-yl-2,8-diazaspiro[4.5]decane-8-carbonyl)-2,3-dihydro-1H-inden-1-yl]-benzamide]	86	106		
CN(C(=O)c1c(Cl)cccc1Cl)C1CCc2ccc(C(=O)N3CCC4(CC3)CCN(c3ccncc3)CC4)cc21 (stereo not shown) [IND_CC-268, 2,6-Dichloro-N-methyl-N-[6-(9-pyridin-4-yl-3,9-diazaspiro[5.5]undecane-3-carbonyl)-2,3-dihydro-1H-inden-1-yl]-benzamide]	99	108		
O=C(NC1CCc2ccc(C(=O)N3CCC4(CC3)CCN(c3ccncc3)CC4)cc21)c1c(Cl)cccc1Cl (stereo not shown) [IND_CC-269, 2,6-Dichloro-N-[6-(9-pyridin-4-yl-3,9-diazaspiro[5.5]undecane-3-carbonyl)-2,3-dihydro-1H-inden-1-yl]-benzamide]	100	107		
O=C(NC1CCc2ccc(C(=O)N3CCC4(CC3)CCN(c3ccncc3)C4)cc21)c1c(Cl)cccc1Cl (stereo not shown) [IND_CC-270, 2,6-Dichloro-N-[6-(2-pyridin-4-yl-2,8-diazaspiro[4.5]decane-8-carbonyl)-2,3-dihydro-1H-inden-1-yl]-benzamide]	100	108		
O=C(NC1CCc2ccc(C(=O)N3CCC4(CC3)CCN(c3ccncc3)C4)cc21)c1ccccc1Cl (stereo not shown) [IND_CC-271, 2-Chloro-N-[6-(2-pyridin-4-yl-2,8-diazaspiro[4.5]decane-8-carbonyl)-2,3-dihydro-1H-inden-1-yl]-benzamide]			100	106
